Results: patent US20130269064A1, “INSECTICIDAL COMPOUNDS” (SYNGENTA PARTICIPATIONS AG, priority 2010, published 2013)

Key:
Format in all cases: in vivo
Spodoptera littoralis = Spodoptera littoralis (Egyptian cotton leafworm) cotton leaf disc test; conditions: foliar, 72 h, 200 ppm sprayed on cotton leaf discs, 5 L1 larvae, mortality, feeding behaviour, growth regulation 3 DAT
From the text: Spodoptera littoralis (Egyptian Cotton Leafworm): Cotton leaf discs were placed on agar in a 24-well microtiter plate and sprayed with test solutions at an application rate of 200 ppm. After drying, the leaf discs were infested with 5 L1 larvae. The samples were checked for mortality, feeding behaviour, and growth regulation 3 days after treatment (DAT).

Heliothis virescens = Heliothis virescens (tobacco budworm) egg/artificial diet test; conditions: 96 h, 200 ppm (concentration in well 18 ppm), eggs 0-24 h old on artificial diet, 4 days, egg mortality, larval mortality, growth regulation
Procedure: Heliothis virescens (Tobacco Budworm): Eggs (0-24 h old) were placed in 24-well microtiter plate on artificial diet and treated with test solutions at an application rate of 200 ppm (concentration in well 18 ppm) by pipetting. After an incubation period of 4 days, samples were checked for egg mortality, larval mortality and growth regulation.

Plutella xylostella = Plutella xylostella (diamond back moth) artificial diet test; conditions: 144 h, 200 ppm (concentration in well 18 ppm), L2 larvae, 6 days, larval mortality and growth regulation
Procedure: Plutella xylostella (Diamond Back Moth): A 24-well microtiter plate (MTP) with artificial diet was treated with test solutions at an application rate of 200 ppm (concentration in well 18 ppm) by pipetting. After drying, the MTP's were infested with L2 larvae (7-12 per well). After an incubation period of 6 days, samples were checked for larval mortality and growth regulation.

Diabrotica balteata = Diabrotica balteata (corn root worm) artificial diet test; conditions: 120 h, 200 ppm (concentration in well 18 ppm), L2 larvae, 5 days, larval mortality and growth regulation
Procedure: Diabrotica balteata (Corn Root Worm): A 24-well microtiter plate (MTP) with artificial diet was treated with test solutions at an application rate of 200 ppm (concentration in well 18 ppm) by pipetting. After drying, the MTP's were infested with larvae (L2) (6-10 per well). After an incubation period of 5 days, samples were checked for larval mortality, and growth regulation.

Tetranychus urticae = Tetranychus urticae (two-spotted spider mite) bean leaf disc test; conditions: foliar, 192 h, 200 ppm sprayed on bean leaf discs, mixed ages, 8 days, egg, larval and adult mortality
From the text: Tetranychus urticae (Two-Spotted Spider Mite): Bean leaf discs on agar in 24-well microtiter plates were sprayed with test solutions at an application rate of 200 ppm. After drying, the leaf discs are infested with mite populations of mixed ages. 8 days later, discs are checked for egg mortality, larval mortality, and adult mortality.

Thrips tabaci = Thrips tabaci (onion thrips) sunflower leaf disc test; conditions: foliar, 168 h, 200 ppm sprayed on sunflower leaf discs, mixed ages, 7 days, mortality
Procedure: Thrips tabaci (Onion Thrips): Sunflower leaf discs were placed on agar in a 24-well microtiter plate and sprayed with test solutions at an application rate of 200 ppm. After drying, the leaf discs were infested with an […] population of mixed ages. After an incubation period of 7 days, samples were checked for mortality.

Measured: pest or weed control at 200 ppm

Cn1nc(C(F)(F)C(F)(F)F)c(C(F)(F)F)c1NC(=O)c1ccc(Cl)c(NC(=O)c2ccc(F)cc2Cl)c1 [Compound E19]
not listed: Thrips tabaci
≥ 80%: all other assays above

Cc1cc(F)ccc1C(=O)Nc1cccc(C(=O)Nc2c(C(F)(F)F)c(C(F)(F)C(F)(F)F)nn2C)c1 [Compound D7]
not listed: Thrips tabaci
≥ 80%: all other assays above

Cn1nc(C(F)(F)C(F)(F)F)c(C(F)(F)F)c1NC(=O)c1cccc(NC(=O)c2ccc([N+](=O)[O-])cc2)c1F [Compound B5]
not listed: Thrips tabaci
≥ 80%: all other assays above

Cn1nc(C(F)(F)C(F)(F)F)c(C(F)(F)F)c1NC(=O)c1cccc(NC(=O)c2ccc(F)cc2F)c1 [Compound D22]
not listed: Tetranychus urticae
≥ 80%: all other assays above

Cc1cc(C#N)ccc1C(=O)Nc1cc(C(=O)Nc2c(C(F)(F)F)c(C(F)(F)C(F)(F)F)nn2C)ccc1Cl [Compound E24]
not listed: Thrips tabaci
≥ 80%: all other assays above

Cc1cc(F)ccc1C(=O)Nc1cc(C(=O)Nc2c(C(F)(F)F)c(C(F)(F)C(F)(F)F)nn2C)ccc1Cl [Compound E7]
not listed: Thrips tabaci
≥ 80%: all other assays above

Cn1nc(C(F)(F)C(F)(F)F)c(C(F)(F)F)c1NC(=O)c1cccc(NC(=O)c2ccccc2F)c1 [Compound D1]
not listed: Tetranychus urticae
≥ 80%: all other assays above

Cn1nc(C(F)(F)C(F)(F)F)c(C(F)(F)F)c1NC(=O)c1cccc(NC(=O)c2ccc(C#N)cc2)c1F [Compound B4]
not listed: Thrips tabaci
≥ 80%: all other assays above

Cn1nc(C(F)(F)C(F)(F)F)c(C(F)(F)F)c1NC(=O)c1cccc(NC(=O)c2ccccc2Cl)c1 [Compound D3]
not listed: Tetranychus urticae
≥ 80%: all other assays above

Cn1nc(C(F)(F)C(F)(F)F)c(C(F)(F)F)c1NC(=O)c1cccc(NC(=O)c2ccccc2)c1 [Compound D16]
≥ 80%: Spodoptera littoralis | Plutella xylostella | Diabrotica balteata | Thrips tabaci

Cn1nc(C(F)(F)C(F)(F)F)c(C(F)(F)F)c1NC(=O)c1ccc(C#N)c(NC(=O)c2ccncc2)n1 [Compound F2]
≥ 80%: Heliothis virescens | Plutella xylostella | Diabrotica balteata | Tetranychus urticae

Cc1cc(C#N)ccc1C(=O)Nc1cccc(C(=O)Nc2c(C(F)(F)F)c(C(F)(F)C(F)(F)F)nn2C)c1 [Compound D24]
≥ 80%: Spodoptera littoralis | Plutella xylostella | Diabrotica balteata | Tetranychus urticae

Cn1nc(C(F)(F)C(F)(F)F)c(C(F)(F)F)c1NC(=O)c1ccc(C#N)c(NC(=O)c2ccccc2)c1 [Compound A2]
not listed: Tetranychus urticae
≥ 80%: all other assays above

Cn1nc(C(F)(F)C(F)(F)F)c(C(F)(F)F)c1NC(=O)c1ccc(Cl)c(NC(=O)c2ccc(C#N)cc2)c1 [Compound E4]
≥ 80%: Spodoptera littoralis | Heliothis virescens | Plutella xylostella | Diabrotica balteata

Cn1nc(C(F)(F)C(F)(F)F)c(C(F)(F)F)c1NC(=O)c1ccc(Cl)c(NC(=O)c2ccc([N+](=O)[O-])cc2Cl)c1 [Compound E9]
≥ 80%: Diabrotica balteata | Tetranychus urticae

Cn1nc(C(F)(F)C(F)(F)F)c(C(F)(F)F)c1NC(=O)c1ccc(Cl)c(NC(=O)c2ccccc2Cl)c1 [Compound E3]
≥ 80%: Spodoptera littoralis | Heliothis virescens | Plutella xylostella | Diabrotica balteata

Cc1ccccc1C(=O)Nc1cccc(C(=O)Nc2c(C(F)(F)F)c(C(F)(F)C(F)(F)F)nn2C)c1 [Compound D2]
≥ 80%: Spodoptera littoralis | Heliothis virescens | Plutella xylostella | Diabrotica balteata

Cn1nc(C(F)(F)C(F)(F)F)c(C(F)(F)F)c1NC(=O)c1cccc(NC(=O)c2ccc(C#N)cc2)c1 [Compound D4]
≥ 80%: Diabrotica balteata | Tetranychus urticae

Cn1nc(C(F)(F)C(F)(F)F)c(C(F)(F)F)c1NC(=O)c1cccc(NC(=O)c2ccc([N+](=O)[O-])cc2)c1 [Compound D5]
≥ 80%: Spodoptera littoralis | Heliothis virescens | Plutella xylostella | Diabrotica balteata

Cn1nc(C(F)(F)C(F)(F)F)c(C(F)(F)F)c1NC(=O)c1ccc(Cl)c(NC(=O)c2ccc(F)cc2)c1 [Compound E17]
≥ 80%: Spodoptera littoralis | Heliothis virescens | Plutella xylostella | Diabrotica balteata

Cn1nc(C(F)(F)C(F)(F)F)c(C(F)(F)F)c1NC(=O)c1cccc(NC(=O)c2cccc(F)c2F)c1 [Compound D21]
not listed: Tetranychus urticae
≥ 80%: all other assays above

Cc1ccc(C(=O)Nc2cccc(C(=O)Nc3c(C(F)(F)F)c(C(F)(F)C(F)(F)F)nn3C)c2F)cc1 [Compound B6]
≥ 80%: Spodoptera littoralis | Heliothis virescens | Plutella xylostella | Diabrotica balteata

Cn1nc(C(F)(F)C(F)(F)F)c(C(F)(F)F)c1NC(=O)c1cccc(NC(=O)c2ccc(F)cc2)c1F [Compound B17]
not listed: Thrips tabaci
≥ 80%: all other assays above

Cn1nc(C(F)(F)C(F)(F)F)c(C(F)(F)F)c1NC(=O)c1cccc(NC(=O)c2cccc(F)c2F)c1F [Compound B21]
≥ 80%: Spodoptera littoralis | Heliothis virescens | Plutella xylostella | Diabrotica balteata
